assay: Glucokinase Activity Assay: Recombinant human liver glucokinase was expressed as a FLAG fusion protein in E. coli, and purified on ANTIFLAG M2 AFFINITY GEL (Sigma). The assay was carried out at 30° C. in a 96-well plate. In the plate was distributed 69 μl each of assay buffer (25 mM Hepes Buffer: pH=7.2, 2 mM MgCl2, 1 mM ATP, 0.5 mM TNAD, 1 mM dithiothreitol), to which was added 1 μl of a DMSO solution of the compound or DMSO as control. Then, 20 μl of pre-ice-cooled enzyme mixture (FLAG-GK, 20 U/ml G6PDH) was distributed thereto, to which was added 10 μl of 25 mM glucose as substrate to initiate the reaction (final glucose concentration=2.5 mM). After starting the reaction, the absorbance at 405 nm was measured every 30 seconds for 10 minutes to evaluate the compound based on the initial increase for 5 minutes. FLAG-GK was added so that the increase of absorbance after 5 minutes fell between 0.05 to 0.1 in the presence of 1% DMSO.

Row | SMILES | EC50
1 | CCOC(=O)Cc1csc(NC(=O)c2nc(Sc3nncn3C)ccc2Sc2ccc(F)cc2)n1 | 49.3 nM
2 | Cn1cnnc1Sc1ccc(Sc2ccc(F)cc2)c(C(=O)Nc2nc(CC(=O)O)cs2)n1 | 137 nM
3 | CCOC(=O)CSc1cnc(NC(=O)c2nc(Sc3nncn3C)ccc2Sc2ccc(F)cc2)s1 | 13.4 nM

From ChEMBL document CHEMBL5725283, “2-pyridinecarboxamide derivatives, compositions containing such compounds, and methods of treatment” (2016)
